Test results taken from PubChem BioAssay AID1259407 (Chemical Carcinogenesis Research Information System (CCRIS), 2018).
The source made the active and inactive calls. How the calls were made is not given here.

Tested on: CCRIS mutagenicity, Ames/micronucleus/aberration tests
Test: CCRIS mutagenicity studies
Conditions: Method: PREINCUBATION
Excerpt: The CCRIS database contains chemical records with carcinogenicity, mutagenicity, tumor promotion, and tumor inhibition test results. It was developed by the National Cancer Institute (NCI). Data are derived from studies cited in primary journals, current awareness tools, NCI reports, and other sources. Test results have been reviewed by experts in carcinogenesis and mutagenesis.
CCRIS provides historical information from the years 1985 - 2011. It is no longer updated.
This is an archive assay for CCRIS mutagenicity studies.

Measured: mutagenic call

O=C(O)c1cccc(Cl)c1
inactive: Test System: AMES SALMONELLA TYPHIMURIUM, Strain/Indicator: TA97, Metabolic Activation: HAMSTER, LIVER, S-9, AROCLOR 1254 (10%) inactive; negative | Test System: AMES SALMONELLA TYPHIMURIUM, Strain/Indicator: TA97, Metabolic Activation: HAMSTER, LIVER, S-9, AROCLOR 1254 (30%) inactive; negative | Test System: AMES SALMONELLA TYPHIMURIUM, Strain/Indicator: TA97, Metabolic Activation: NONE inactive; negative | Test System: AMES SALMONELLA TYPHIMURIUM, Strain/Indicator: TA97, Metabolic Activation: RAT, LIVER, S-9, AROCLOR 1254 (10%) inactive; negative | Test System: AMES SALMONELLA TYPHIMURIUM, Strain/Indicator: TA97, Metabolic Activation: RAT, LIVER, S-9, AROCLOR 1254 (30%) inactive; negative | Test System: AMES SALMONELLA TYPHIMURIUM, Strain/Indicator: TA98, Metabolic Activation: HAMSTER, LIVER, S-9, AROCLOR 1254 (10%) inactive; negative | Test System: AMES SALMONELLA TYPHIMURIUM, Strain/Indicator: TA98, Metabolic Activation: HAMSTER, LIVER, S-9, AROCLOR 1254 (30%) inactive; negative | Test System: AMES SALMONELLA TYPHIMURIUM, Strain/Indicator: TA98, Metabolic Activation: NONE inactive; negative | Test System: AMES SALMONELLA TYPHIMURIUM, Strain/Indicator: TA98, Metabolic Activation: RAT LIVER S-9, PCB inactive; negative | Test System: AMES SALMONELLA TYPHIMURIUM, Strain/Indicator: TA98, Metabolic Activation: RAT, LIVER, S-9, AROCLOR 1254 (10%) inactive; negative | Test System: AMES SALMONELLA TYPHIMURIUM, Strain/Indicator: TA98, Metabolic Activation: RAT, LIVER, S-9, AROCLOR 1254 (30%) inactive; negative | Test System: AMES SALMONELLA TYPHIMURIUM, Strain/Indicator: TA100, Metabolic Activation: HAMSTER, LIVER, S-9, AROCLOR 1254 (10%) inactive; negative | Test System: AMES SALMONELLA TYPHIMURIUM, Strain/Indicator: TA100, Metabolic Activation: HAMSTER, LIVER, S-9, AROCLOR 1254 (30%) inactive; negative | Test System: AMES SALMONELLA TYPHIMURIUM, Strain/Indicator: TA100, Metabolic Activation: NONE inactive; negative | Test System: AMES SALMONELLA TYPHIMURIUM, Strain/Indicator: TA100, Metabolic Activation: RAT LIVER S-9, PCB inactive; negative | Test System: AMES SALMONELLA TYPHIMURIUM, Strain/Indicator: TA100, Metabolic Activation: RAT, LIVER, S-9, AROCLOR 1254 (10%) inactive; negative | Test System: AMES SALMONELLA TYPHIMURIUM, Strain/Indicator: TA100, Metabolic Activation: RAT, LIVER, S-9, AROCLOR 1254 (30%) inactive; negative | Test System: AMES SALMONELLA TYPHIMURIUM, Strain/Indicator: TA104, Metabolic Activation: NONE inactive; negative | Test System: AMES SALMONELLA TYPHIMURIUM, Strain/Indicator: TA104, Metabolic Activation: RAT LIVER S-9, PCB inactive; negative | Test System: AMES SALMONELLA TYPHIMURIUM, Strain/Indicator: TA1535, Metabolic Activation: HAMSTER, LIVER, S-9, AROCLOR 1254 (10%) inactive; negative | Test System: AMES SALMONELLA TYPHIMURIUM, Strain/Indicator: TA1535, Metabolic Activation: HAMSTER, LIVER, S-9, AROCLOR 1254 (30%) inactive; negative | Test System: AMES SALMONELLA TYPHIMURIUM, Strain/Indicator: TA1535, Metabolic Activation: NONE inactive; negative | Test System: AMES SALMONELLA TYPHIMURIUM, Strain/Indicator: TA1535, Metabolic Activation: RAT, LIVER, S-9, AROCLOR 1254 (10%) inactive; negative | Test System: AMES SALMONELLA TYPHIMURIUM, Strain/Indicator: TA1535, Metabolic Activation: RAT, LIVER, S-9, AROCLOR 1254 (30%) inactive; negative | Test System: AMES SALMONELLA TYPHIMURIUM, Strain/Indicator: TA1537, Metabolic Activation: HAMSTER, LIVER, S-9, AROCLOR 1254 (30%) inactive; negative | Test System: AMES SALMONELLA TYPHIMURIUM, Strain/Indicator: TA1537, Metabolic Activation: NONE inactive; negative | Test System: AMES SALMONELLA TYPHIMURIUM, Strain/Indicator: TA1537, Metabolic Activation: RAT, LIVER, S-9, AROCLOR 1254 (30%) inactive; negative | Test System: E.COLI, Strain/Indicator: WP2 UVRA, Metabolic Activation: NONE inactive; negative | Test System: E.COLI, Strain/Indicator: WP2 UVRA, Metabolic Activation: RAT LIVER S-9, PCB inactive; negative
